Experimental data reported in patent publication US10011813B2, “Methane oxidation methods and compositions” (California Institute of Technology, priority 2015, dated 2018).

Test system: ANME-SRB consortia
Test: FISH-nanoSIMS 15N incorporation (anabolic activity) of ANME-SRB consortia
Type: cell-based, ANME-2c archaea and Desulfobacteraceae
Experimental: Incubations for FISH-nanoSIMS and RNA analysis. For AOM incubations with sulfate or AQDS that were used for nanoSIMS (FIG. 7 and FIG. 8A) and RNA analysis (FIG. 6), incubations experiments were set up following the AOM-rate measurements described above (initially containing 1.0 mM ammonium without ^15N label). Methane oxidation rates were tracked in these incubations via the ^13C label. After 11 days, ca. 3.5 mL of supernatant remained in the serum bottles to which 3.0 mL artificial seawater without ammonium containing either 25 mM AQDS, 28 mM sulfate, or no oxidant or electron acceptor was added. Next, 0.1 mL ^15NH4^+ (100 mM) was injected to yield about 2.0 mM ammonium with ca. 75% ^15N. Methane oxidation was monitored. After additional 8 days, the medium of the AQDS incubations was exchanged by 5.0 mL new medium containing 25 mM AQDS and 2.0 mM ^15NH4^+. Now the AQDS incubations contained ca. 95% ^15NH4^+ in the ammonium pool. The cultures were incubated for additional 10 days before harvest. Total incubation time with labeled ammonium: 18 days. Average labeling strength: ca. 75% for sulfate and no oxidant or electron acceptor control; ca. 86% for the AQDS incubations.
For the second independent set of experiments with iron citrate, humic acids and sulfate (FIG. 8B), the medium contained 1.0 mM ammonium with ca. 40% ^15N label throughout the incubation period. These experiments were carried out from identical incubations that were for the AOM rate measurements (highlighted in Table 4). In regards to Table 4, the percentage AOM rates are reported relative to sulfate-coupled AOM (1.50 μmol cm^−3 day^−1). Top: Summary of compounds described in FIG. 1B; Bottom: Oxidants or electron acceptors resulting in an AOM rate less than 0.10 μmol […] day^−1 (<7% rel. to sulfate as oxidant or electron acceptor).
Sampling for FISH-nanoSIMS and RNA. After an 18-day incubation in the presence of ^15NH4^+, each incubation was shaken to suspend the sediment and 1.0 mL sediment slurry was sampled using a disposable sterile needle and syringe (ca. 0.3 mL wet sediment). […]
Sample preparation for aggregate embedding, sectioning, FISH, and nanoSIMS. […] Sections of ca. 1 μm thickness were cut and stretched on a water droplet on a polylysine coated slide with teflon wells (Tekdon Inc) and analyzed by fluorescence in situ hybridization (FISH). […]
FISH conditions and probes. The FISH hybridization on thin sections of resin embedded microbial aggregates followed the recently optimized protocol described in S. E. McGlynn et al. The phylogenetic identity of microorganisms in the thin sections were determined using conventional FISH using oligonucleotide probes fluorescently labeled on both the 5′ and 3′ ends (dual labeled) as outlined herein. […]

O=C1c2ccc(S(=O)(=O)O)cc2C(=O)c2ccc(S(=O)(=O)O)cc21 [AQDS, 9,10-anthraquinone-2,6-disulfonate]
doubling time of ANME cells based on average 15N-incorporation (18 days with 15NH4+): 3.3 months
anabolic activity within ANME-SRB consortia (sulfate-free incubations): occurred only in the ANME archaea
